Legend:
ENaC = target: T1, ENaC (Canis lupus familiaris, UniProt A0A8I3MKE6+A0A8I3Q679+Q95165); test: Inhibition of short-circuit current (ISC) and reversibility, bronchial epithelial monolayers in Ussing chamber, canine cells; format: cell-based; conditions: canine bronchial epithelial cells (CBE); mean ± SD (n)
T1 sequence (A0A8I3Q679 1-649): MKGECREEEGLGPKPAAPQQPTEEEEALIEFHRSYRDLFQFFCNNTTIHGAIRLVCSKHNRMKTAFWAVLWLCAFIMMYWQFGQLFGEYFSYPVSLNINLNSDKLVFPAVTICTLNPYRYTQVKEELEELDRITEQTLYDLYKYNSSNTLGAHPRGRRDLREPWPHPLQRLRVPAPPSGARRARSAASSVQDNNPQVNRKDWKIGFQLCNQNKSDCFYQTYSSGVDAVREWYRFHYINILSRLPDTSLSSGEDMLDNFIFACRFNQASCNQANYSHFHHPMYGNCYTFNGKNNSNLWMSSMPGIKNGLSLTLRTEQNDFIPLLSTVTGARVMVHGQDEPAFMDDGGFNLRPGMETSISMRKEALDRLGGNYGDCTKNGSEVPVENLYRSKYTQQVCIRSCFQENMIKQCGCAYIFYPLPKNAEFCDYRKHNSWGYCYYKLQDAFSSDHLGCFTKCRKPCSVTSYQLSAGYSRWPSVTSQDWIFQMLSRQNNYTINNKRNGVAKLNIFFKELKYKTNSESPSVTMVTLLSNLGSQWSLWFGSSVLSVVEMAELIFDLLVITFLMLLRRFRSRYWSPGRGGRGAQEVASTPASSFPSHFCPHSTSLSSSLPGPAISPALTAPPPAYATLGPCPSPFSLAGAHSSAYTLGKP
T1 sequence (Q95165 1-641): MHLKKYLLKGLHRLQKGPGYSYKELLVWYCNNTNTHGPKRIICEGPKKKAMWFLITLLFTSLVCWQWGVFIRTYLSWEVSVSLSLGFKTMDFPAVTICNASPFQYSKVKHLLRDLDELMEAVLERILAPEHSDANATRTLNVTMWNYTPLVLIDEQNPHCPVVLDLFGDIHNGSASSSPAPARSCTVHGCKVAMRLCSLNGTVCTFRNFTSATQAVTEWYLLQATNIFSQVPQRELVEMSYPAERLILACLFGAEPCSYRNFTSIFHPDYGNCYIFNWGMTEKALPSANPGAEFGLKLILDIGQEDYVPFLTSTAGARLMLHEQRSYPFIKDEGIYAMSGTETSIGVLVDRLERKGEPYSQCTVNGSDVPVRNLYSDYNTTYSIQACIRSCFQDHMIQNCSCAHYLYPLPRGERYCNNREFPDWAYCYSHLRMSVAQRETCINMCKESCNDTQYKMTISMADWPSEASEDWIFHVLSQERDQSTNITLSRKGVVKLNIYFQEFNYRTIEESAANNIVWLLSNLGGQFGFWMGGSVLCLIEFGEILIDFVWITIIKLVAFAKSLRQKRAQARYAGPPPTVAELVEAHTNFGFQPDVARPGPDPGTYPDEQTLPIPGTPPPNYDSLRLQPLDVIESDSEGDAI
T1 sequence (A0A8I3MKE6 1-646): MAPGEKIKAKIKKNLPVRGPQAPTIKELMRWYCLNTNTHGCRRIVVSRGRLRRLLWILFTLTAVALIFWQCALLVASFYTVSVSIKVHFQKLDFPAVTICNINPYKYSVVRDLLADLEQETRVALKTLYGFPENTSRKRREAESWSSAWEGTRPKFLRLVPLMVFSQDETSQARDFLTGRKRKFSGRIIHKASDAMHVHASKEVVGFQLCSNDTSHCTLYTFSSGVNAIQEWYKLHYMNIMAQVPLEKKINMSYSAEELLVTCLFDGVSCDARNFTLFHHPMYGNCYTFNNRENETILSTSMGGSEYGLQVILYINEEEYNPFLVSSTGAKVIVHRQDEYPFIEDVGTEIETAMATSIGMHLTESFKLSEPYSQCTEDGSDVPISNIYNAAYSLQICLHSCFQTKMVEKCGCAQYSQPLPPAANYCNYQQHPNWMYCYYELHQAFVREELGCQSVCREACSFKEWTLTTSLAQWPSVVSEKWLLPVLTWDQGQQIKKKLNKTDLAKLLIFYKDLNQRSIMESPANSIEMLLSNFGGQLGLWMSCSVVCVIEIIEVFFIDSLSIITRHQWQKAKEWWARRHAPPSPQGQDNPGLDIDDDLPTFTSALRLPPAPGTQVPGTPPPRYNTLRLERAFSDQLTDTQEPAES
Method: One assay used to assess mechanism of action and/or potency of the compounds of the present invention involves the determination of luminal drug inhibition of airway epithelial sodium currents measured under short circuit current (ISC) using airway epithelial monolayers mounted in Ussing chambers. Cells are obtained from freshly excised human, canine, sheep or rodent airways.
Inhibition of transcellular sodium movement through ENaC was measured using polarized bronchial epithelial cell monolayers mounted in a modified Ussing chamber. Primary cultures of canine or human bronchial epithelial cells grown using an air-liquid interface were tested under voltage clamp conditions. The short-circuit current (ISC) was measured as an index of transepithelial sodium transport to assess potency.
Recovery of short circuit current (ISC) from maximal block was used as an indirect measurement of drug off-rate.

Muc5B = Muc5B (Homo sapiens, UniProt Q9HC84); conditions: in vitro; cited from earlier work

SMILES | IC50 (ENaC) | concentration required to fully reduce Muc5B (Muc5B)
N=C(NCCCCc1ccc(OCCN(CCCc2ccccc2)C[C@H](O)[C@@H](O)[C@H](O)[C@H](O)CO)cc1)NC(=O)c1nc(Cl)c(N)nc1N [Compound 12, 3,5-diamino-6-chloro-N—(N-(4-(4-(2-(((2S,3R,4R,5R)-2,3,4,5,6-pentahydroxyhexyl)(3-phenylpropyl)amino)ethoxy)phenyl)butyl)carbamimidoyl)pyrazine-2-carboxamide] | 6.6 ± 7 nM | 
N=C(NCCCCc1ccc(OCCN(CCCc2ccc3ccccc3c2)C[C@H](O)[C@@H](O)[C@H](O)[C@H](O)CO)cc1)NC(=O)c1nc(Cl)c(N)nc1N [Compound 17, 3,5-diamino-6-chloro-N—(N-(4-(4-(2-((3-(naphthalen-2-yl)propyl)((2S,3R,4R,5R)-2,3,4,5,6-pentahydroxyhexyl)amino)ethoxy)phenyl)butyl)carbamimidoyl)pyrazine-2-carboxamide] | 5.6 ± 9 nM | 
N=C(NCCCCc1ccc(OCCN(CCCc2cccc3ccccc23)C[C@H](O)[C@@H](O)[C@H](O)[C@H](O)CO)cc1)NC(=O)c1nc(Cl)c(N)nc1N [Compound 27, 3,5-diamino-6-chloro-N—(N-(4-(4-(2-((3-(naphthalen-1-yl)propyl)((2S,3R,4R,5R)-2,3,4,5,6-pentahydroxyhexyl)amino)ethoxy)phenyl)butyl)carbamimidoyl)pyrazine-2-carboxamide] | 5.9 ± 4.8 nM | 
N=C(NCCCCc1ccc(CCCN(CCCc2ccccc2)C[C@H](O)[C@@H](O)[C@H](O)[C@H](O)CO)cc1)NC(=O)c1nc(Cl)c(N)nc1N [Compound 40, 3,5-diamino-6-chloro-N—(N-(4-(4-(3-(((2S,3R,4R,5R)-2,3,4,5,6-pentahydroxyhexyl)(3-phenylpropyl)amino)propyl)phenyl)butyl)carbamimidoyl)pyrazine-2-carboxamide] | 11.8 ± 8.2 nM | 
CC(=O)N[C@@H](CS)C(=O)O [NAC, N-acetyl cysteine] |  | 200 mM
